What all share (assay type): cell-based
For assay [1], the target named is T1, GIP receptor (Homo sapiens, UniProt P48546).
T1 sequence (P48546 22-466): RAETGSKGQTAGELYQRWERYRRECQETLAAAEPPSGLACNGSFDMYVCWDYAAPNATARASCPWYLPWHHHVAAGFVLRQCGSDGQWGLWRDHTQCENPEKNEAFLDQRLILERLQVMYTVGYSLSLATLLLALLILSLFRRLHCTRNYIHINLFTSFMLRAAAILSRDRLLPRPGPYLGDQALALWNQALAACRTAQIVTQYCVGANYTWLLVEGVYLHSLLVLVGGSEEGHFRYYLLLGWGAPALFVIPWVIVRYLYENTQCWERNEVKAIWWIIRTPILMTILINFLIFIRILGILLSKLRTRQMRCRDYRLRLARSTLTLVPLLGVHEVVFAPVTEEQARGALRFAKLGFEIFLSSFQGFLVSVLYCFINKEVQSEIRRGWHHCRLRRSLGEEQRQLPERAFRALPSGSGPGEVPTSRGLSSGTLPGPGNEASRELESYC
Nature of the assay: HitHunter cAMP assay, GIP receptor. The following applies: for EC50: CHO cells stably expressing GIP receptor, cAMP accumulation, 30 min, read-out: EC50 GIP-1R; for Emax: CHO cells, cAMP, normalized to maximum signal from GIP (high) and DMSO (low), read-out: Emax GIP-1R. (In general: Changes in cAMP serve as a functional read-out for many G protein-coupled receptors.)

The target of assay [2] is T2, GLP-1 receptor (Homo sapiens, UniProt P43220). Nature of the assay: PathHunter β-arrestin assay, GLP-1 receptor. Set-up: host or cells: PathHunter CHO-K1 GLP1R β-Arrestin Cell Line. The note with it: β-arrestin-2 recruitment, PathHunter CHO-K1 GLP1R β-Arrestin Cell Line, 90 min at 37° C.; normalized to GLP-1; read-out: GLP-1R β Arrestin EC50. For orientation: Recruitment of arrestin is a read-out of receptor activation apart from second messengers.

Assay [3] concerns the target T2, GLP-1 receptor. Description: HitHunter cAMP assay, GLP-1 receptor. The following applies: for EC50: CHO cells stably expressing human GLP-1 receptor, cAMP accumulation, 30 min, read-out: EC50 GLP-1R; for Emax: CHO cells, cAMP, normalized to maximum signal from GLP-1 (high) and DMSO (low), read-out: Emax GLP-1R.
The target in assay [4] is T1, GIP receptor. Description: PathHunter β-arrestin assay, GIP receptor. Set-up: host or cells: PathHunter CHO-K1 GIPR β-Arrestin Cell Line. The following applies: β-arrestin-2 recruitment, PathHunter CHO-K1 GIPR β-Arrestin Cell Line, 90 min at 37° C.; normalized to GIP; read-out: GIPR β Arrestin EC50.

Structures are written as SMILES.

T2 sequence (P43220 24-463): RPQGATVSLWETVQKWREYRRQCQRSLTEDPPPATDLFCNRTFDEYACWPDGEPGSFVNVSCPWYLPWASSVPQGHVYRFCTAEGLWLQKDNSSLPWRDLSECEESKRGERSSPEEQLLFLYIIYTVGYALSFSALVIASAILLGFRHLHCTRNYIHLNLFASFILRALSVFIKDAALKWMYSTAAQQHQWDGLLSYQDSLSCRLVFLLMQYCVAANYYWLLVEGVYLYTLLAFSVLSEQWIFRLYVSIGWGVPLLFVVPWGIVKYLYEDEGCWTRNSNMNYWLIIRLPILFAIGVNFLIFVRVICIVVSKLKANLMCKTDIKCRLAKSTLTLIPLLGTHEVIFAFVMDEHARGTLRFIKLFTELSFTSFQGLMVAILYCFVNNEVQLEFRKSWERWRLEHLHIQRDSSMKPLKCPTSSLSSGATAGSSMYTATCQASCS

For `CC[C@H](C)[C@H](NC(=O)[C@H](CO)NC(=O)[C@H](CCCCNC(=O)COCCOCCNC(=O)COCCOCCNC(=O)CC[C@H](NC(=O)CCCCCCCCCCCCCCCCCCC(=O)O)C(=O)O)NC(=O)[C@H](CC(=O)O)NC(=O)[C@H](CO)NC(=O)[C@@H](NC(=O)[C@H](Cc1ccccc1)NC(=O)[C@@H](NC(=O)CNC(=O)[C@H](CCC(=O)O)NC(=O)CCNC(=O)[C@@]1(c2ccccc2)CNC(=O)C1)[C@@H](C)O)[C@@H](C)O)C(=O)N[C@@H](Cc1ccc(O)cc1)C(=O)N[C@@H](CC(C)C)C(=O)N[C@@H](CC(=O)O)C(=O)N[C@@H](CCCCN)C(=O)N[C@@H](CCC(N)=O)C(=O)N[C@@H](C)C(=O)N[C@@H](C)C(=O)NC(C)(C)C(=O)N[C@@H](CCC(=O)O)C(=O)N[C@@H](Cc1ccccc1)C(=O)N[C@H](C(=O)N[C@@H](CC(N)=O)C(=O)N[C@@H](Cc1c[nH]c2ccccc12)C(=O)N[C@@H](CC(C)C)C(=O)N[C@@H](CC(C)C)C(=O)N[C@@H](C)C(=O)NCC(=O)NCC(=O)N1CCC[C@H]1C(=O)N[C@@H](CO)C(=O)N[C@@H](CO)C(=O)NCC(=O)N[C@@H](C)C(=O)N1CCC[C@H]1C(=O)N1CCC[C@H]1C(=O)N1CCC[C@H]1C(=O)N[C@@H](CO)C(N)=O)C(C)C` (single isomer, unassigned) [Compound 123], the EC50 on GIP receptor [1] was 10 to 100 nM; on GLP-1 receptor [2], above 1000 nM; at GLP-1 receptor [3], 10 to 100 nM; at GIP receptor [4], above 1000 nM. The figures for the Emax on GIP receptor [1] and on GLP-1 receptor [3] were 103% and 95%, respectively.

Take `CC[C@H](C)[C@H](NC(=O)[C@H](CO)NC(=O)[C@H](Cc1ccc(O)cc1)NC(=O)[C@H](CC(=O)O)NC(=O)[C@H](CO)NC(=O)[C@@H](NC(=O)[C@H](Cc1ccccc1)NC(=O)[C@@H](NC(=O)CNC(=O)[C@H](CCC(=O)O)NC(=O)CCNC(=O)[C@@]1(c2ccccc2)CNC(=O)C1)[C@@H](C)O)[C@@H](C)O)C(=O)N[C@@H](Cc1ccc(O)cc1)C(=O)N[C@@H](CC(C)C)C(=O)N[C@@H](CC(=O)O)C(=O)N[C@@H](CCCCN)C(=O)N[C@@H](CCC(N)=O)C(=O)N[C@@H](C)C(=O)N[C@@H](C)C(=O)N[C@@H](CCCCNC(=O)COCCOCCNC(=O)COCCOCCNC(=O)CC[C@H](NC(=O)CCCCCCCCCCCCCCCCCCC(=O)O)C(=O)O)C(=O)N[C@@H](CCC(=O)O)C(=O)N[C@@H](Cc1ccccc1)C(=O)N[C@H](C(=O)N[C@@H](CC(N)=O)C(=O)N[C@@H](Cc1c[nH]c2ccccc12)C(=O)N[C@@H](CC(C)C)C(=O)N[C@@H](CC(C)C)C(=O)N[C@@H](C)C(=O)NCC(=O)NCC(=O)N1CCC[C@H]1C(=O)N[C@@H](CO)C(=O)N[C@@H](CO)C(=O)NCC(=O)N[C@@H](C)C(=O)N1CCC[C@H]1C(=O)N1CCC[C@H]1C(=O)N1CCC[C@H]1C(=O)N[C@@H](CO)C(N)=O)C(C)C` (single isomer, unassigned) [Compound 124]: the EC50 was 10 to 100 nM at GIP receptor [1], above 1000 nM at GLP-1 receptor [2], 10 to 100 nM on GLP-1 receptor [3] and above 1000 nM at GIP receptor [4]. Also, the figures for the Emax on GIP receptor [1] and on GLP-1 receptor [3] were 102% and 97%, respectively.

On to `CC[C@H](C)[C@H](NC(=O)[C@H](CO)NC(=O)[C@H](Cc1ccc(O)cc1)NC(=O)[C@H](CC(=O)O)NC(=O)[C@H](CO)NC(=O)[C@@H](NC(=O)[C@H](Cc1ccccc1)NC(=O)[C@@H](NC(=O)CNC(=O)[C@H](CCC(=O)O)NC(=O)CCNC(=O)[C@@]1(c2ccccc2)CNC(=O)C1)[C@@H](C)O)[C@@H](C)O)C(=O)N[C@@H](Cc1ccc(O)cc1)C(=O)N[C@@H](CC(C)C)C(=O)N[C@@H](CC(=O)O)C(=O)N[C@@H](CCCCN)C(=O)N[C@@H](CCC(N)=O)C(=O)N[C@@H](C)C(=O)N[C@@H](C)C(=O)NC(C)(C)C(=O)N[C@@H](CCC(=O)O)C(=O)N[C@@H](Cc1ccccc1)C(=O)N[C@H](C(=O)N[C@@H](CC(N)=O)C(=O)N[C@@H](Cc1c[nH]c2ccccc12)C(=O)N[C@@H](CC(C)C)C(=O)N[C@@H](CC(C)C)C(=O)N[C@@H](C)C(=O)NCC(=O)NCC(=O)N1CCC[C@H]1C(=O)N[C@@H](CO)C(=O)N[C@@H](CO)C(=O)NCC(=O)N[C@@H](C)C(=O)N1CCC[C@H]1C(=O)N1CCC[C@H]1C(=O)N1CCC[C@H]1C(=O)N[C@@H](CO)C(=O)N[C@@H](CCCCNC(=O)COCCOCCNC(=O)COCCOCCNC(=O)CC[C@H](NC(=O)CCCCCCCCCCCCCCCCCCC(=O)O)C(=O)O)C(N)=O)C(C)C` (single isomer, unassigned) [Compound 125], for which the EC50 at GIP receptor [1] was 10 to 100 nM; on GLP-1 receptor [2], above 1000 nM; at GLP-1 receptor [3], 10 to 100 nM; on GIP receptor [4], above 1000 nM. The results for the Emax at GIP receptor [1] and on GLP-1 receptor [3] were 105% and 101%, respectively.

For the compound `CC[C@H](C)[C@H](NC(=O)[C@H](CO)NC(=O)[C@H](Cc1ccc(O)cc1)NC(=O)[C@H](CC(=O)O)NC(=O)[C@H](CO)NC(=O)[C@@H](NC(=O)[C@H](Cc1ccccc1)NC(=O)[C@@H](NC(=O)CNC(=O)[C@H](CCC(=O)O)NC(=O)CCNC(=O)[C@]1(c2ccccc2)CNC(=O)C1)[C@@H](C)O)[C@@H](C)O)C(=O)N[C@@H](Cc1ccc(O)cc1)C(=O)N[C@@H](CC(C)C)C(=O)N[C@@H](CC(=O)O)C(=O)N[C@@H](CCCCN)C(=O)N[C@@H](CCC(N)=O)C(=O)N[C@@H](C)C(=O)N[C@@H](C)C(=O)N[C@@H](CCCCNC(=O)COCCOCCNC(=O)COCCOCCNC(=O)CC[C@H](NC(=O)CCCCCCCCCCCCCCCCCCC(=O)O)C(=O)O)C(=O)N[C@@H](CCC(=O)O)C(=O)N[C@@H](Cc1ccccc1)C(=O)N[C@H](C(=O)N[C@@H](CC(N)=O)C(=O)N[C@@H](Cc1c[nH]c2ccccc12)C(=O)N[C@@H](CC(C)C)C(=O)N[C@@H](CC(C)C)C(=O)N[C@@H](C)C(=O)NCC(=O)NCC(=O)N1CCC[C@H]1C(=O)N[C@@H](CO)C(=O)N[C@@H](CO)C(=O)NCC(=O)N[C@@H](C)C(=O)N1CCC[C@H]1C(=O)N1CCC[C@H]1C(=O)N1CCC[C@H]1C(=O)N[C@@H](CO)C(N)=O)C(C)C` (single isomer, unassigned) [Compound 128], the EC50 was 10 to 100 nM at GIP receptor [1], above 1000 nM on GLP-1 receptor [2], 1 to 10 nM at GLP-1 receptor [3] and above 1000 nM on GIP receptor [4]. The Emax on GIP receptor [1] is 101%; on GLP-1 receptor [3], 99%.

For the compound `CC[C@H](C)[C@H](NC(=O)[C@H](CO)NC(=O)[C@H](CCCCNC(=O)COCCOCCNC(=O)COCCOCCNC(=O)CC[C@H](NC(=O)CCCCCCCCCCCCCCCCCCC(=O)O)C(=O)O)NC(=O)[C@H](CC(=O)O)NC(=O)[C@H](CO)NC(=O)[C@@H](NC(=O)[C@H](Cc1ccccc1)NC(=O)[C@@H](NC(=O)CNC(=O)[C@H](CCC(=O)O)NC(=O)CCNC(=O)[C@]1(c2ccccc2)CNC(=O)C1)[C@@H](C)O)[C@@H](C)O)C(=O)N[C@@H](Cc1ccc(O)cc1)C(=O)N[C@@H](CC(C)C)C(=O)N[C@@H](CC(=O)O)C(=O)N[C@@H](CCCCN)C(=O)N[C@@H](CCC(N)=O)C(=O)N[C@@H](C)C(=O)N[C@@H](C)C(=O)NC(C)(C)C(=O)N[C@@H](CCC(=O)O)C(=O)N[C@@H](Cc1ccccc1)C(=O)N[C@H](C(=O)N[C@@H](CC(N)=O)C(=O)N[C@@H](Cc1c[nH]c2ccccc12)C(=O)N[C@@H](CC(C)C)C(=O)N[C@@H](CC(C)C)C(=O)N[C@@H](C)C(=O)NCC(=O)NCC(=O)N1CCC[C@H]1C(=O)N[C@@H](CO)C(=O)N[C@@H](CO)C(=O)NCC(=O)N[C@@H](C)C(=O)N1CCC[C@H]1C(=O)N1CCC[C@H]1C(=O)N1CCC[C@H]1C(=O)N[C@@H](CO)C(N)=O)C(C)C` (single isomer, unassigned) [Compound 129], the EC50 on GIP receptor [1] was 10 to 100 nM; on GLP-1 receptor [2] it was above 1000 nM; on GLP-1 receptor [3] it was 1 to 10 nM; on GIP receptor [4] it was above 1000 nM. Further, the Emax is 106% at GIP receptor [1] and 108% at GLP-1 receptor [3].

The EC50 is the concentration giving half of the maximal effect. In general, Emax refers to the greatest response seen or fitted, relative to the assay's reference.

Values taken from patent US12281149B2, “Modulators of G-protein coupled receptors” (priority 2021, dated 2025).
